From patent US20240309014A1, “MACROCYCLIC COMPOUNDS AND USES THEREOF” (President and Fellows of Harvard College, priority 2017, published 2024)

Columns and labels:
[1] = system: human bladder carcinoma cell line RT112/84; test: Bladder carcinoma cell line growth inhibition assay, RT112/84; type: cell-based; details: RT112/84, 72 h, 3 days incubation, CellTiter-Glo 2.0
Experimental: In this assay, the growth inhibitory activity of Compound (1) in human bladder carcinoma cell lines RT4, RT112/84, and UM-UC-3 was measured. RT4 and RT112/84 cells were maintained in a RPMI-1640 (FUJIFILM Wako Pure Chemical Corporation, 189-02025) medium containing 10% fetal bovine serum (FBS: SIGMA Life Science, 172012-500ML), and penicillin and streptomycin (FUJIFILM Wako Pure Chemical Corporation, 168-23191) in a 5% CO2 incubator (37° C.). UM-UC-3 cells were maintained in an E-MEM (FUJIFILM Wako Pure Chemical Corporation, 051-07615) medium containing 10% FBS, 1 mM Sodium Pyruvate (FUJIFILM Wako Pure Chemical Corporation, 190-14881), and penicillin and streptomycin in a 5% CO2 incubator (37° C.). To each well of a 96 well plate (Coming, 3904), 90 μL of each cell suspension adjusted to a concentration of 5.55×10^3 cells/mL (RT4 or UM-UC-3) or 3.33×10^4 cells/mL (RT112/84) with the culture medium was added, and the cells were incubated overnight in a 5% CO2 incubator (37° C.). On the next day, 10 μL of Compound (1) in three-fold dilution series suspended in the culture medium was added to each well, and the resultant was incubated for 3 days in a 5% CO2incubator (37° C.). Then, cell viability was determined by CellTiter-Glo® 2.0 Assay (Promega Corporation, G9243) with ARVO-X4 Multimode Plate Reader (Perkin-Elmer, Wellesley, MA). […]

[2] = system: BJ normal human fibroblasts stimulated with TGF-β; test: TGF-β-treated BJ cells, in vitro CAF-inducing system; type: cell-based
Experimental: FIG. 19A. BJ cells (normal human […] fibroblasts) were co-cultured with FaDu cells for three days in the absence (vehicle) or presence of A83-01, a potent selective TGF-β-R inhibitor, and the expression of α-SMA was analysed by immunofluorescence staining (red color). Samples were also stained with anti-pan-human cytokeratin (green color) for cancer cell staining and DAPI (blue color) for nuclear staining. FIGS. 19B-19E BJ cells were treated with Compound (1) (0.15 nmol/L in immunofluorescence staining data and indicated concentrations in western blot analysis data) and TGF-β for 2 days. FIGS. 19B-19E. Samples were stained with the indicated antibody (red color) and DAPI (blue color) for nuclear staining. FIG. 19E Western blot images and quantification of the images. […] FIGS. 19G and 19E BJ cells were pretreated with defactinib (1 μmol/L) and TGF-β for 2 days. The lens magnification used was x4 (FIGS. 19A, 19B, 19C, 19G, and 19H) or x40 (FIGS. 19D and 19E).
FIGS. 20A and 20B. Quantification of immunofluorescence images of BJ cells treated with TGF-β(1 ng/mL) and the indicated concentrations of Compound (1) for α-SMA (FIG. 20A), Phospho-S6-ribosomal protein (Ser235/236) (FIG. 20B). FIG. 20C. Immunofluorescence analysis of BJ cells treated with TGF-β in the absence or presence of dactolisib, a phosphatidylinositol 3 kinase inhibitor. FIG. 20D. Immunofluorescence analysis of phosphorylated Smad⅔ in BJ cells pretreated with Compound (1) (72 hours) after 30 minutes of stimulation with TGF-β. Acetylated-α-tubulin was co-stained to confirm the activity of Compound (1). FIG. 20E. Western blot analysis of Smad⅔ in BJ cells treated with TGF-β and the indicated concentrations of Compound (1). The lens magnification used was x4 (FIG. 20C) or x40 (FIG. 20D).
The expression of α-SMA was induced in BJ normal human fibroblasts upon co-cultivation with FaDu cells, and the expression was attenuated by treatment with A83-01, a potent selective inhibitor of the TGF-β-receptor (FIG. 19A).
Under the same experimental conditions, the enhanced formation of focal adhesions, which were detected as punctate structures with an antibody against phosphorylated FAK at tyrosine-397, after stimulation with TGF-β was decreased in BJ cells by treatment with Compound (1) (FIG. 19E). Many signalling complexes are assembled in focal adhesion sites, and those complexes dispatch several downstream signals, including those involved in the PI3K/AKT/mTOR pathway. See, e.g., Sulzmaier et. al. “FAK in cancer: mechanistic findings and clinical applications”, Nature Reviews Cancer 2014, 14, 598-610.

U2OS-EB3-AG cells = test: Antiproliferative activity in U2OS-EB3-AG cells; type: cell-based
[3] = system: OE21, OE33, TE-8, MES-SA, MES-SA/Dx5-RX1 cell lines; test: In vitro antiproliferative activity, esophageal and uterine cancer cell panel (FIG. 11); type: cell-based, human; details: 72 hours, CellTiter-Glo; values only in FIG. 11
Experimental: The in vitro antiproliferative assays for Compound (1) were conducted using a small panel of cancer cell lines including human squamous cell carcinoma of the esophagus (OE21, TE-8), human […] of the esophagus (OE33), and human uterine sarcoma (MES-SA, MES-SA-Dx5-R^X1). All cell lines were cultured in RPMI-1640 medium containing 10% FBS, and penicillin-streptomycin (culture medium), in a 5% CO2 incubator (37° C.). To each well of a 96 well plate (Becton, Dickinson and Company, 353219), 75 μL of cell suspension adjusted to a concentration of 4×10^4 cells/mL with the culture medium was added, and the cells were incubated overnight in a 5% CO2 incubator (37° C.). On the next day, 25 μL of Compound (1) in three-fold dilution series suspended in the culture medium was added to each well, and the resultant was incubated for 72 hours in a 5% CO2 incubator (37° C.). Then, cell viability was determined by CellTiter-Glo® Luminescent Cell Viability Assay (Promega) with 2013 EnVision™ Multilabel Reader (Perkin-Elmer, Wellesley, MA). Value of the wells containing cells without adding the test compounds was defined as 100% and the value of the wells containing no cells was defined as 0%. […] The P-gp susceptibility was calculated as the ratio of the IC50 value in MES-SA-Dx5-R^X1 cells, which overexpress P-gp, to the IC50 value in MES-SA cells.

B-16 melanoma cells = details: among natural Halichondrin compounds; cited from earlier work

SMILES	IC50 [1] [nM]	TGF-β-induced phosphorylation and nuclear localization of Smad⅔ ([2]; BJ cells)	enhanced formation of focal adhesions (phosphorylated FAK at tyrosine-397) ([2]; BJ cells after stimulation with TGF-β)	activation of the PI3K/AKT/mTOR pathway ([2]; BJ cells treated with TGF-β)	TGF-β-enhanced P3-tubulin expression and microtubule network formation ([2]; BJ cells, co-treatment with TGF-β)	α-SMA induction by TGF-β ([2]; BJ cells, immunofluorescence, 2 days)	IC50 (U2OS-EB3-AG cells) [nM]	antiproliferative activity [3]	anti-tumor activities against B-16 melanoma cells in vitro (B-16 melanoma cells)
C=C1C[C@@H]2CC[C@@]34C[C@H]5O[C@H]6[C@@H](O3)[C@H]3O[C@H](CC[C@@H]3O[C@H]6C5O4)CC(=O)O[C@@H]3[C@@H](C)[C@@H]4O[C@@H]5C[C@]6(C[C@@H]7O[C@]8(C[C@H](C)[C@@H]9O[C@H](CN)[C@H](O)C[C@@H]9O8)C[C@H](C)[C@@H]7O6)O[C@@H]5C[C@@H]4O[C@H]3C[C@H]3O[C@@H](CC[C@@H]1O2)C[C@@H](C)C3=C (stereo in doubt) [Compound (1)]	0.0497	did not significantly change	decreased	reduce the activation of the PI3K/AKT/mTOR pathway	diminished	interfered with α-SMA induction by TGF-β in BJ cells without growth inhibitory activity	0.5	potent antiproliferative agent	
C=C1C[C@@H]2CC[C@@]34C[C@H]5O[C@H]6[C@@H](O3)[C@H]3O[C@H](CC[C@@H]3O[C@H]6[C@H]5O4)CC(=O)O[C@@H]3[C@@H](C)[C@@H]4O[C@@H]5C[C@]6(C[C@@H]7O[C@]8(C[C@H](C)[C@@H]9O[C@H]([C@@H](O)C[C@@H](O)CO)C[C@@H]9O8)C[C@H](C)[C@@H]7O6)O[C@@H]5C[C@@H]4O[C@H]3C[C@H]3O[C@@H](CC[C@@H]1O2)C[C@@H](C)C3=C [Halichondrin B, reference compound]									strongest anti-tumor activities
